Experimental data: US11969433B2, “Compositions and methods for muscle regeneration using prostaglandin E2” (The Board of Trustees of the Leland Stanford Junior …, priority 2016, dated 2024)

Legend:
aged MuSCs [1] = assay: Clonal aged MuSC proliferation and death by time-lapse microscopy in hydrogel microwells; assay type: cell-based, mouse
Excerpt: We assayed clonal muscle stem cell proliferation by time-lapse microscopy as previously described^5,6. Briefly, we treated isolated aged MuSCs with PGE2 (Cayman Chemical) or vehicle (DMSO) for 24 hr. After five days of growth on hydrogels, cells were reseeded at a density of 500 cells per cm^2 surface area in hydrogel microwells with 600 μm diameter. For time-lapse microscopy we monitored cell proliferation for those wells with single cells beginning 12 hr (day 0) to two days after seeding and recorded images every 3 min at 10× magnification using a PALM/AxioObserver Z1 system (Carl Zeiss MicroImaging) with a custom environmental control chamber and motorized stage. We changed medium every other day in between the acquisition time intervals. We analyzed time-lapse image sequences using the Baxter Algorithms for Cell Tracking and Lineage Reconstruction to identify and track single cells and generate lineage trees^5,6,8-10.
Viable and dead cells were distinguished in time-lapse sequences based on phase-contrast boundary and motility maintenance or loss, respectively. […] The values were estimated using the equations described in^6, and found in Table 1. We denote the proliferation rates in the two intervals p24 and p48 and the corresponding death rates d24 and d48. […] The modeled cell counts in the two time intervals are given by […]

aged MuSCs [2] = assay: Aged MuSC numbers after acute 24 hr treatment, hydrogel culture; assay type: cell-based, mouse; conditions: 1-day pulse; PGE2 10 ng/ml or SW033291 1 μM; assayed day 7
Description: Following isolation, we resuspended MuSCs in myogenic cell culture medium containing DMEM/F10 (50:50), 15% FBS, 2.5 ng ml^−1 fibroblast growth factor-2 (FGF-2 also known as bFGF) and 1% penicillin-streptomycin. We seeded MuSC suspensions at a density of 500 cells per cm^2 surface area. We maintained cell cultures at 37° C. in 5% CO2 and changed medium daily. […]
To assay proliferation, we used three different assays (hemocytometer, VisionBlue, and EdU). […] For hemocytometer cell number count, we collected cells at indicated timepoints by incubation with 0.5% trypsin in PBS for 5 min at 37° C. and quantified them using a hemocytometer at least 3 times. Additionally, we used the VisionBlue Quick Cell Viability Fluorometric Assay Kit (BioVision, catalog #K303) as a readout for cell growth in culture. Briefly, we incubated MuSCs with 10% VisionBlue in culture medium for 3 h, and measured fluorescence intensity on a fluorescence plate reader (Infinite M1000 PRO, Tecan) at Ex=530-570 nm, Em=590-620 nm. […] We quantified EdU positive cells using the MetaMorph Image Analysis software (Molecular Devices). Data analyses were blinded, where researchers performing cell scoring were unaware of the treatment condition given to sample groups analyzed.

MuSCs [3] = assay: EdU incorporation proliferation assay; assay type: cell-based, mouse; conditions: young MuSCs, PGE2 10 ng/ml
Description: To assay proliferation, we used three different assays (hemocytometer, VisionBlue, and EdU). For each, we seeded MuSCs on flat hydrogels (hemocytometer and VisionBlue) or collagen-coated plates (EdU assay) at a density of 500 cells per cm^2 surface area. For hemocytometer cell number count, we collected cells at indicated timepoints by incubation with 0.5% trypsin in PBS for 5 min at 37° C. and quantified them using a hemocytometer at least 3 times. Additionally, we used the VisionBlue Quick Cell Viability Fluorometric Assay Kit (BioVision, catalog #K303) as a readout for cell growth in culture. Briefly, we incubated MuSCs with 10% VisionBlue in culture medium for 3 h, and measured fluorescence intensity on a fluorescence plate reader (Infinite M1000 PRO, Tecan) at Ex=530-570 nm, Em=590-620 nm. We assayed proliferation using the Click-iT EdU Alexa Fluor 555 Imaging kit (Life Technologies). Briefly, we incubated live cells with EdU (20 μM) for 1 hr prior to fixation, and stained nuclei according to the manufacturer's guidelines together with anti-MYOGENIN (Santa Cruz, catalog #sc576, 1:250) to assay differentiation. […] We quantified EdU positive cells using the MetaMorph Image Analysis software (Molecular Devices). Data analyses were blinded, where researchers performing cell scoring were unaware of the treatment condition given to sample groups analyzed.

MuSCs [4] = assay: MuSC transplantation into injured TA muscle, engraftment by bioluminescence imaging; assay type: in vivo, mouse; conditions: cultured MuSCs, acute 1-day PGE2, 250 cells transplanted day 7 into NOD-SCID mice
MuSCs [5] = assay: cAMP activity assay (cAMP-Glo); assay type: cell-based, mouse; conditions: 1 hr PGE2 10 ng/ml
Description: MuSCs were treated with DMSO (vehicle) or PGE2 (10 ng/ml) for 1 h and cyclic AMP levels measured according to the cAMP-Glo Assay protocol optimized by the manufacturer (Promega). Each sample was assayed in triplicate and in two independent experiments.

[6] = aged MuSCs, 1 day PGE2, 48 h tracking
[7] = first 24 hour interval, aged MuSC clones
[8] = second 24 hour interval, aged MuSC clones

CCCCC[C@H](O)/C=C/[C@H]1[C@H](O)CC(=O)[C@@H]1C/C=C\CCCC(=O)O [PGE2, prostaglandin E2] was tested, and the “percent increase in dead cell count” value (aged MuSCs [1]; aged MuSC clones, acute PGE2) was 0.1%, the “percent increase in live cell count” value (aged MuSCs [1]; aged MuSC clones, acute PGE2, n=45 clones) was 5.4% and the cell death (aged MuSCs [1]; [6]) was “profound reduction”. The “cumulative cell numbers per clone” value (aged MuSCs [1]; [6]) was “remarkable increase”, the “Estimated death rate d24” value (aged MuSCs [1]; [7]) was 0.0067 per hours and the “Estimated proliferation rate p24” value (aged MuSCs [1]; [7]) was 0.0475 per hours. The “Estimated death rate d48” value (aged MuSCs [1]; [8]) was 0.0012 per hours, the “Estimated proliferation rate p48” value (aged MuSCs [1]; [8]) was 0.0538 per hours and the “proliferation of aged MuSCs” value (aged MuSCs [2]) was “increase”. For the same compound, the “cell division assayed by EDU incorporation” value (MuSCs [3]) was “increased”, the “young MuSC regenerative capacity assessed by BLI” value (MuSCs [4]) was “enhanced by an order of magnitude” and the “intracellular cAMP” value (MuSCs [5]) was “elevated”.
